Consider 2 compounds from US5409949A, “Methylen-oxindole derivatives compositions and tyrosine kinase inhibition therewith” (Farmitalia Carlo Erba S.r.l., priority 1991, dated 1995).

Test [1] addresses v-abl kinase. The test can be described thus: Myelin Basic Protein phosphorylation assay. Conditions: myelin basic protein 56 μM as substrate, 10 μM cold ATP, pH 8.0, 22° C. The test is classed as biochemical. As for the experimental part:
(§1) The tyrosine specific protein kinase activity of these compounds is shown by the in vitro tests described herebelow.
(§2) The enzyme used in the Abelson tyrosine kinase p95^v-ab which was produced and isolated as follows: 1 Liter cultures of HB-130 cells in LB medium, supplemented with ampicillin, were grown at 30° C. as described by Wang et al. in J. Biol. Chem. 260, 64 (1985). The expression of v-abl protein was induced by shifting the temperature to 42° C. for 3-4 h. The bacterial cells were collected on ice, centrifuged and frozen in liquid nitrogen. The cell pellet was lysed as described by Ferguson et al. in J. Biol. Chem. 260, 3652 (1985) and in Biochem. J. 257, 321 (1989). Briefly, bacterial proteins were removed by differential solubilization with sodium deoxycholate, NaCl and β-octylglucopyranoside in different steps. Insoluble v-abl protein was solubilized with 2M KSCN and dialyzed against 100 volumes of 50 mM Tris-HCl, pH 7.5, 1 mM EDTA and 0.1 mM dithiothreitol (buffer A). The soluble proteins were separated by chromatography on a prepacked Mono-Q anion exchange column in a f.p.l.c. system. […]
The in vitro test with Myelin Basic Protein as substrate was carried out as follows: Protein phosphorylation was performed by incubating 40 ng of purified v-abl kinase, 1.5 μCi […] Bands were located by autoradiography, excised from gel and counted in a liquid scintillation counter.

Test [2] has as its target v-abl kinase. The test can be described thus: Autophosphorylation assay (v-abl kinase). It is filed as biochemical. Conditions: immunoprecipitated v-abl kinase, 10 μM ATP, 15 min, room temperature. As for the experimental part: as §1
as §2, with “A).” for “A). The soluble proteins were separated by chromatography on a prepacked Mono-Q anion exchange column in a f.p.l.c. system.”
For the autophosphorylation assay the v-abl kinase was immunoprecipitated with antiphosphotyrosine antibodies and the resulting immunocomplex analyzed in 50 μl of kinase buffer in the presence of 10 μM ATP and 10 μCi […]. […] Bands were located by autoradiography, excised and counted as above. […]

pIC50: −log10 of the molar value.

Take `O=C1Nc2ccccc2C1=Cc1c[nH]c2ccccc12` [3-[(3'-indolyl)methylen]-2-oxindole]: the pIC50 at v-abl kinase [1] is 6.22; on v-abl kinase [2], 5.00.
With `O=C1Nc2ccc(O)cc2C1=Cc1c[nH]c2ccccc12` [5-Hydroxy-3-[(3'-indolyl)methylene]-2-oxindole], the pIC50 against v-abl kinase [1] and against v-abl kinase [2] was 6.40 each time.
